Structures can show the parent of a compound that is named as a salt.
Experiments:
[1] = target: Human indoleamine 2,3-dioxygenase1 (hIDO1) (Homo sapiens (Human), UniProt P14902); assay: In-vitro IDO1 enzyme assay (conversion of L-tryptophan to KYN); format: biochemical; settings: read-out: IC50 (IDO1) Enz
Source text: Human indoleamine 2,3-dioxygenasel (hIDO1) catalyzes the oxidative cleavage of the pyrrole ring of the indole nucleus of tryptophan to yield N-formylkynurenine which can be converted to kynurenine (KYN) by deformylation. hIDO1 with an N-terminal His tag, expressed and purified from E. coli cells was procured from either Enzo LifeScienccs, NY, USA). Unless otherwise stated, all materials were procured from Sigma Aldrich, Mo., USA.
The assay monitoring the conversion of L-tryptophan to KYN was carried out as follows. hIDO1 (10 nM) was incubated with tryptophan (30 μM) in the presence of ascorbic acid (20 mM), methylene blue (10 μM) and catalase (100 μg/mL) in potassium phosphate buffer (50 mM; pH 6.5) at 37C for 30 min. The reaction was terminated with 30% trichloroacetic acid (TCA) and further incubated at 65C for 15 min to fully convert N-formylkynurenine to KYN. The reaction mixture was then centrifuged to remove sediments and the KYN in the supernatant was estimated by UV-visible absorption spectroscopy at 360 nm using a Waters HPLC system fitted with a C-18 column or by LC/MS/MS. See, Sono, 1980, J. Biol. Chem., 255:1339-1345, which is herein incorporated by reference.
Percent inhibition at each concentration of test compounds was determined by estimating the decrease in KYN with reference to the reaction control with 1% DMSO vehicle. Data were analyzed using nonlinear regression to generate IC50 values using Graph Pad Prism® 5.

[2] = target: Human TDO (hTDO)-transfected CHO-K1 cells (Homo sapiens (Human), UniProt P48775); assay: CHO-K1 cell based TDO assay; settings: hTDO cellular assay
Description: Human TDO (hTDO)-transfected CHO-K1 cells were used to identify test compounds that inhibit TDO activity and reduce Kynurenine production. CHO-K1 cells (ATCC) were cultured in DMEM supplemented with sodium bicarbonate (2.1 g/L), HEPES (4.1 g/L), L-glutamine (2 mM), non-essential amino acid (84 mg/L) and fetal bovine serum (10%) and maintained at 95% humidity and 5% CO2 in a 37° C. incubator. The TDO gene (TDO2) (Accession number NM_005651.1) was purchased from Origene (USA) and stably expressed in CHO-Kl cells using the expression vector pcDNA4/Myc-HisB Hygro (Life Technologies, USA). TDO-expressing clones were identified based on the kynurenine production by the cells. Expanded clones were used for assay as described below. Unless otherwise stated, all materials were procured from Sigma.
hTDO transfected CHO-K1 cells (0.05 million/well) were seeded in a 96-well plate and maintained overnight in DMEM containing 10% FBS (200 μL) at 95% humidity and 5% CO2 in a 37° C. incubator. The following day, cells were washed and incubated with test compounds (typically 31 μM to 10 nM, final volume 150 μL) in Hanks Balanced Salt Solution (HBSS) containing 80 μM L-tryptophan for 2 hours. Supernatant (150 μL) from the cells was treated with 30% TCA ([…]) to precipitate proteins. Supernatants were further incubated at 65° C. for 15 min to convert N-formylkynurenine to kynurenine. KYN in the supernatant was measured by LC/MS/MS using an API4000 mass spectrometer (Applied Biosystems) coupled to a Shimadzu Prominence LC system fitted with a C18 column.
Percent inhibition of the test compounds was determined by measuring the decrease in KYN as compared to the reaction control (DMSO vehicle). IC50 values were calculated using Graph Pad Prism® 5 as described above.

Sequence of Human TDO (hTDO)-transfected CHO-K1 cells (P48775 whole entry): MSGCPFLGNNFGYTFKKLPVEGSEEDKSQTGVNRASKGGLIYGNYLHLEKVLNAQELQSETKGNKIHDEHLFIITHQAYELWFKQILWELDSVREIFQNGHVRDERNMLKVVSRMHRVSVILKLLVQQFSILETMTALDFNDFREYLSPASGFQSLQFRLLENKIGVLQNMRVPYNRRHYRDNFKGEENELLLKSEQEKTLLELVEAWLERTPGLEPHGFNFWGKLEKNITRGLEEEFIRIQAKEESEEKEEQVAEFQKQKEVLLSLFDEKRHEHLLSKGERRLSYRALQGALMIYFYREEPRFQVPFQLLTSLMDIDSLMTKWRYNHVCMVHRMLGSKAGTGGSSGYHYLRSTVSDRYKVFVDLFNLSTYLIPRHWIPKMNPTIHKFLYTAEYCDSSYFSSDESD
Sequence of Human indoleamine 2,3-dioxygenase1 (hIDO1) (P14902 whole entry): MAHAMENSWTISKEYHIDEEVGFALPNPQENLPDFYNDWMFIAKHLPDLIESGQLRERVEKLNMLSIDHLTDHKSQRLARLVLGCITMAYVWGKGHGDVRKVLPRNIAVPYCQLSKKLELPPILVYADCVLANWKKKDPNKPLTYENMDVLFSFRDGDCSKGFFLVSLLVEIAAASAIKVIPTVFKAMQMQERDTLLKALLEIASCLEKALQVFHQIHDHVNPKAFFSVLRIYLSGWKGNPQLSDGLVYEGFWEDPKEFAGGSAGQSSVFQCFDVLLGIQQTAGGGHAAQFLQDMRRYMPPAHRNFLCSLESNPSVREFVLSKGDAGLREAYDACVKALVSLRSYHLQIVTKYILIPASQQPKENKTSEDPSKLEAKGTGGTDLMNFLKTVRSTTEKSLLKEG

Row | Structure (SMILES) | IC50 [1] [nM] | IC50 [2] [nM]
1 | CCOC(=O)Nc1oc2c(C#Cc3ccc(C(N)=O)cc3)nccc2c1N(C(=O)OCC)c1ccc(F)c(Cl)c1 [Compound 160, Ethyl (7-((4-carbamoylphenyl)ethynyl)-2-((ethoxycarbonyl)amino)furo[2,3-c]pyridin-3-yl)(3-chloro-4-fluorophenyl)carbamate] | > 1000 | > 2000
2 | Cc1ccc(Nc2c(N)oc3cnccc23)c(C)c1 [Compound 54, N^3-(2,4-Dimethylphenyl)furo[2,3-c]pyridine-2,3-diamine] | > 1000 | 500 to 2000
3 | Nc1oc2cnccc2c1Nc1ccc(I)c(Cl)c1 [Compound 18, N^3-(3-Chloro-4-iodophenyl)furo[2,3-c]pyridine-2,3-diamine] | > 1000 | 500 to 2000
4 | Nc1oc2cnccc2c1Nc1ccc(N2CCOCC2)cc1 [Compound 11, N^3-(4-Morpholinophenyl)furo[2,3-c]pyridine-2,3-diamine] | > 1000 | > 2000
5 | CCOC(=O)Nc1oc2c(-c3cccc(C#N)c3)nccc2c1N(C(=O)OCC)c1ccc(F)c(Cl)c1 [Compound 146, Ethyl (3-chloro-4-fluorophenyl)(7-(3-cyanophenyl)-2-((ethoxycarbonyl)amino)furo[2,3-c]pyridin-3-yl)carbamate] | > 1000 | > 2000
6 | Nc1oc2cnccc2c1Nc1cccnc1 [Compound 49, N^3-(Pyridin-3-yl)furo[2,3-c]pyridine-2,3-diamine] | > 1000 | 500 to 2000
7 | CC(C)Oc1cccc(Nc2c(N)oc3cnccc23)c1 [Compound 37, N^3-(3-Isopropoxyphenyl)furo[2,3-c]pyridine-2,3-diamine] | > 1000 | > 2000
8 | C#Cc1ccc(Nc2c(N)oc3cnccc23)cc1 [Compound 36, N^3-(4-Ethynylphenyl)furo[2,3-c]pyridine-2,3-diamine] | > 1000 | 500 to 2000
9 | CCOC(=O)Nc1sc2ccccc2c1Nc1ccc(F)c(Cl)c1 [Compound 209, Ethyl (3-((3-chloro-4-fluorophenyl)amino)benzo[b]thiophen-2-yl)carbamate] | > 1000 | > 2000
10 | O=C(Nc1oc2cnccc2c1N(C(=O)OCc1ccccc1)c1ccc(F)c(Cl)c1)OCc1ccccc1 [Compound 140, Benzyl (2-(((benzyloxy)carbonyl)amino)furo[2,3-c]pyridin-3-yl)(3-chloro-4-fluorophenyl)carbamate] | > 1000 | –
11 | Nc1oc2cnccc2c1Nc1ccc(OC(F)(F)F)cc1 [Compound 50, N^3-(4-(Trifluoromethoxy)phenyl)furo[2,3-c]pyridine-2,3-diamine] | > 1000 | 500 to 2000
12 | CN(c1ccccc1)c1c(N)sc2ccccc12 [Compound 135, N^3-Methyl-N^3-phenylbenzo[b]thiophene-2,3-diamine hydrochloride] | > 1000 | > 2000
13 | CCOC(=O)Nc1oc2c(-c3cc(C)nc(C)c3)nccc2c1N(C(=O)OCC)c1ccc(F)c(Cl)c1 [Compound 165, Ethyl (3-chloro-4-fluorophenyl)(7-(2,6-dimethylpyridin-4-yl)-2-((ethoxycarbonyl)amino)furo[2,3-c]pyridin-3-yl)carbamate] | > 1000 | > 2000
14 | Nc1oc2cnccc2c1Nc1ccc(C(F)(F)F)cc1 [Compound 6, N^3-(4-(Trifluoromethyl)phenyl)furo[2,3-c]pyridine-2,3-diamine] | > 1000 | 500 to 2000
15 | Nc1sc2cnccc2c1Nc1ccc(F)c(Cl)c1 [Compound 121, N^3-(3-chloro-4-fluorophenyl)thieno[2,3-c]pyridine-2,3-diamine] | > 1000 | > 2000
16 | Nc1sc2ccccc2c1Sc1cccc(Cl)c1 [Compound 122, 3-((3-Chlorophenyl)thio)benzo[b]thiophen-2-amine] | > 1000 | > 2000

Row | Structure (SMILES) | IC50 [1] [nM] | IC50 [2] [nM]
17 | CCOC(=O)Nc1oc2c(-c3cc(C)nc(C)c3)nccc2c1Nc1ccc(F)c(Cl)c1 [Compound 163, Ethyl (3-((3-chloro-4-fluorophenyl)amino)-7-(2,6-dimethylpyridin-4-yl)furo[2,3-c]pyridin-2-yl)carbamate] | > 1000 | > 2000
18 | CCOC(=O)Nc1oc2c(C#N)nccc2c1N(C(=O)OCC)c1ccc(F)c(C(F)(F)F)c1 [Compound 194, Ethyl (7-cyano-2-((ethoxycarbonyl)amino)furo[2,3-c]pyridin-3-yl)(4-fluoro-3-(trifluoromethyl)phenyl)carbamate] | > 1000 | > 2000
19 | COC(=O)Nc1oc2cnccc2c1Nc1ccc(F)c(Cl)c1 [Compound 143, Methyl (3-((3-chloro-4-fluorophenyl)amino)furo[2,3-c]pyridin-2-yl)carbamate] | > 1000 | > 2000
20 | CC(=O)c1ccc(Nc2c(N)oc3cnccc23)cc1 [Compound 41, 1-(4-((2-Aminofuro[2,3-c]pyridin-3-yl)amino)phenyl)ethanone] | > 1000 | 500 to 2000
21 | COc1ccc(Nc2c(N)oc3cnccc23)c(OC)c1 [Compound 34, N^3-(2,4-Dimethoxyphenyl)furo[2,3-c]pyridine-2,3-diamine] | > 1000 | > 2000
22 | CCOC(=O)Nc1oc2c(C#N)nccc2c1N(C(=O)OCC)c1ccc(F)c(Cl)c1 [Compound 145, Ethyl (3-chloro-4-fluorophenyl)(7-cyano-2-((ethoxycarbonyl)amino)furo[2,3-c]pyridin-3-yl)carbamate] | > 1000 | > 2000
23 | CCOC(=O)Nc1oc2c(Br)nccc2c1N(C(=O)OCC)c1ccc(F)c(Cl)c1 [Compound 161, Ethyl (7-bromo-2-((ethoxycarbonyl)amino)furo[2,3-c]pyridin-3-yl)(3-chloro-4-fluorophenyl)carbamate] | > 1000 | > 2000
24 | Nc1oc2cnccc2c1Nc1cc(F)c(F)cc1F [Compound 12, N^3-(2,4,5-Trifluorophenyl)furo[2,3-c]pyridine-2,3-diamine] | > 1000 | > 2000
25 | CCOC(=O)Nc1oc2c(-c3ccccc3)nccc2c1Nc1ccc(F)c(Cl)c1 [Compound 162, Ethyl (3-((3-chloro-4-fluorophenyl)amino)-7-phenylfuro[2,3-c]pyridin-2-yl)carbamate] | > 1000 | > 2000
26 | Nc1oc2cnccc2c1Nc1cccc(Cc2ccccc2)c1 [Compound 75, N^3-(3-Benzylphenyl)furo[2,3-c]pyridine-2,3-diamine] | > 1000 | > 2000
27 | Nc1oc2cnccc2c1Nc1cncc(Cl)c1 [Compound 52, N^3-(5-Chloropyridin-3-yl)furo[2,3-c]pyridine-2,3-diamine] | > 1000 | 500 to 2000
28 | Nc1sc2c(-c3cncc4ccccc34)cccc2c1Nc1ccc(F)c(Cl)c1 [Compound 281, N^3-(3-Chloro-4-fluorophenyl)-7-(isoquinolin-4-yl)benzo[b]thiophene-2,3-diamine] | – | > 2000
29 | Nc1oc2c(-c3ccc(F)c(F)c3F)nccc2c1Nc1ccc(F)c(Cl)c1 [Compound 171, N^3-(3-Chloro-4-fluorophenyl)-7-(2,3,4-trifluorophenyl)furo[2,3-c]pyridine-2,3-diamine] | < 200 | –
30 | Nc1oc2cccnc2c1Nc1ccc(F)c(Cl)c1 [Compound 1, N^3-(3-chloro-4-fluoro-phenyl)-furo[3,2-b]pyridine-2,3-diamine] | < 200 | –
31 | COc1cc(Nc2c(N)oc3cnccc23)cc(OC)c1 [Compound 38, N^3-(3,5-Dimethoxyphenyl)furo[2,3-c]pyridine-2,3-diamine] | > 1000 | –
32 | Nc1sc2ccc(-c3ccccc3)cc2c1Nc1ccc(F)c(Cl)c1 [Compound 134, N^3-(3-chloro-4-fluorophenyl)-5-phenylbenzo[b]thiophene-2,3-diamine] | > 1000 | –
